Experimental data from patent US20210134398A1, “Combinatorial Chemistry Computational System and Enhanced Selection Method” (Southern Methodist University, priority 2019, published 2021).
Entries after “also recorded” stand apart in the source; their conditions may differ. Where two headings read alike, the source gives them in different places.

Key:
[1] = tested on: P-gp overexpressing prostate cancer cell line, DU145TXR; assay: MTT cell viability assay, resensitization to paclitaxel; assay type: cell-based, human; conditions: for Fold vs PTX + 29: vs paclitaxel + parental compound 29; for Fold vs PTX (fold increased sensitivity): vs paclitaxel alone; for Resensitization of DU145TXR to paclitaxel / MDR reversal (in words): 3 to 10 μM inhibitor
Source text: The Group 1 ChemGen/docking routine produced variants of P-gp inhibitor 29 resensitize a multidrug resistant, P-gp overexpressing prostate cancer cell line to paclitaxel. The mitochondrial reduction potential of cells is often used as an indicator for cell viability using MTT assays^4. Using these assays it was observed that the five Group 1 derivatives of 29 predicted through the ChemGen/docking routine and synthesized here, 216, 227, 231, 541 and 551, re-sensitized the P-gp overexpressing prostate cancer cell line, DU145TXR^33, to the chemotherapeutic, paclitaxel (FIG. 12, showing results of assays at concentrations of 3 μM, 5 μM, 7 μM, and 10 μM).
Cytotoxicity of the chemotherapeutic, paclitaxel (PTX) to P-gp overexpressing prostate cancer cells, DU145TXR, was determined in the absence and presence of the ChemGen designed 29-variants, 216, 227, 231, 541 and 551. For each experimental compound IC50 values of PTX alone or in the presence of inhibitors, fold improvement of PTX sensitivity in the presence of inhibitor, and fold improvement of PTX sensitivity by variants compared to parental compound 29 are given.
Effects of Group 2 variants on the paclitaxel sensitivity of P-glycoprotein overexpressing prostate cancer cells, DU145TXR. MTT assays were again used to assess the efficacy of the new structural 29-variants on sensitizing the chemotherapy-resistant prostate cancer cell line, DU145TXR, to paclitaxel, at concentrations of 3 μM, 5 μM, 7 μM, and 10 μM as shown in FIG. 15 and Table 4.
MTT cell viability assay. Cells were trypsinized from monolayers and seeded with 3000 cells in 150 μL of complete medium in a 96 well plate. After 24 hours, cells were treated for 48 hours with paclitaxel (Acros Organics, NJ) and/or P-gp inhibitory compounds dissolved in DMSO, or DMSO controls. All additions were diluted into complete medium. After 48 hours of treatment, MTT assays were performed as described^41 using 5 mg/mL of MTT (Acros Organics, NJ) solution prepared in PBS (137 mM NaCl, 2.7 mM KCl, 10 mM Na2HPO4, 1.8 mM KH2PO4, pH 7.4). After 4 hours of incubation with MTT, the media was removed and the formazan crystals were dissolved in 100 μL of DMSO. The absorbance at 570 nm was then measured using a BioTek Cytation 5 imaging multi-mode reader (Bio-Tek, Winooski, Vt.). Percent viability was calculated using DMSO treated cells as representative for 100% viability, according to Equation 1. Background absorbance was determined using MTT and complete medium without cells and subtracted from all the test values. Equation 1:
The results were plotted as the mean with standard deviation (SD) of eight replicates per concentration from at least two independent experiments with n=8. The graphical representations and IC50 values were determined using four parameter variable slope non-linear regression, using the following equation: Y=bottom+(top-bottom)/(1+10^((log IC50−X)*Hill Slope) (GraphPad Prism™, La Jolla Calif., USA, Version 6.05). The reported “fold sensitization” was calculated as follows, per Equation 2: […]

[2] = molecular target: P-gp (P-gp over-expressing cell line, DU145TXR) (Homo sapiens, UniProt P08183); assay: Cellular accumulation of experimental compounds by LC-MS/MS with and without tariquidar; conditions: for Transport substrate for P-gp: not told
Sequence of P-gp (P-gp over-expressing cell line, DU145TXR) (P08183 whole entry): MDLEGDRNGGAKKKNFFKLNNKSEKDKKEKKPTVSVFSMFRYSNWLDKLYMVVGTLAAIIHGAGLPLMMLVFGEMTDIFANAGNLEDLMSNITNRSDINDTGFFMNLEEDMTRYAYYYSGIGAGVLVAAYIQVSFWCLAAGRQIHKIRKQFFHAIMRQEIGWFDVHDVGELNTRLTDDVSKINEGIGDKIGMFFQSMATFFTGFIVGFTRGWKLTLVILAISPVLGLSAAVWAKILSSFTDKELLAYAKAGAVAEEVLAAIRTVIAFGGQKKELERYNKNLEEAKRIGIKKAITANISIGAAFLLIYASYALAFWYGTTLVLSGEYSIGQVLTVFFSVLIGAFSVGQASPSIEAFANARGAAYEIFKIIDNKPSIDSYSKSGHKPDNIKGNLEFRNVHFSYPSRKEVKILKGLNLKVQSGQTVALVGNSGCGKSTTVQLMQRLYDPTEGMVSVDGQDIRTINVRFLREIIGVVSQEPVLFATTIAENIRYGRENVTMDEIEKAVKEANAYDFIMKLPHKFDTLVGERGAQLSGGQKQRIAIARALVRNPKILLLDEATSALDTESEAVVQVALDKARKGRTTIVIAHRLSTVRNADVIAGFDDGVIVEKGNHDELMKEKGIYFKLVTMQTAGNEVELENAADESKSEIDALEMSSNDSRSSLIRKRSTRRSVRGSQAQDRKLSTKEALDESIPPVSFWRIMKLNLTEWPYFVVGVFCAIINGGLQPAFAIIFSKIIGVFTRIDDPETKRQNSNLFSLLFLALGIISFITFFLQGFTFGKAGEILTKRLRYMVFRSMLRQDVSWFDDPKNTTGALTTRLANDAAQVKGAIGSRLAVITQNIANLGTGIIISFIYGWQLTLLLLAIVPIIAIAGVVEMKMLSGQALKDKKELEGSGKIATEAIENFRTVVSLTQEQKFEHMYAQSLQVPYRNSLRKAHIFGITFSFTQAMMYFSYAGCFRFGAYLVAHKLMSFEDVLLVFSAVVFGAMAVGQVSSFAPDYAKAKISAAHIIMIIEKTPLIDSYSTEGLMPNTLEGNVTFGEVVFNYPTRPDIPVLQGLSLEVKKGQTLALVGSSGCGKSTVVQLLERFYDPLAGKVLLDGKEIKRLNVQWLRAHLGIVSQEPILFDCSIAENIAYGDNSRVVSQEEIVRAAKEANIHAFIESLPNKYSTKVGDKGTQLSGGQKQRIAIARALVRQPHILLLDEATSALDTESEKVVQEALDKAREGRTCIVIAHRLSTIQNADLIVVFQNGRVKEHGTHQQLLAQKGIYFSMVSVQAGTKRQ
Description: Stimulation of basal ATPase by 29-variants was used as an indicator that a compound may be a P-gp transport substrate. Effects on stimulated P-gp ATPase activity indicated whether a compound directly interfered with ATP usage by the protein (***, p<0.001; **, p<0.01; *, p<0.1; NS, not significant). Quantitative cellular accumulation of 29-variants was performed using LC-MS/MS and is presented as a ratio of the cellular amounts of 29-variants in the presence of P-gp inhibitor, tariquidar, divided by amounts accumulated in its absence. […] Binding of an ATP analog, SL-ATP, to P-gp was used to determine whether ATP binding to P-gp was affected by the 29-variants. Values +/−standard deviations are shown for at least three different P-gp preparations and three independent SL-ATP titration experiments. The values for SL-ATP binding in the presence of 29 were taken directly from Brewer et al. (2014).
Intracellular accumulation of compound 29 variants. Cell accumulation assays for each of the 29 variants were performed as in reference^28 to more directly assess whether the compounds were indeed transport substrates for P-gp.
Cellular Accumulation Assays for Experimental P-gp Inhibitors. Cells used (DU145TXR), cell culturing, cell exposure to compounds, cellular handling and extractions were performed as described in^28. LC-MS/MS methods were performed as described in^71 and as modified in^28.

[3] = molecular target: T1, P-gp-catalyzed transport of calcein AM in DU145TXR cells (Homo sapiens, UniProt P08183); assay: Calcein AM accumulation assay; assay type: cell-based; conditions: without pre-incubation, compared to parental 29; 5 μM stated for Group 2
T1 construct: DU145 human prostate cancer cells^52 as well as the multidrug resistant sub-line, DU145TXR; endogenous in cells; host or cells: DU145TXR (paclitaxel-selected sub-line of human DU145 prostate cancer cells)
T1 sequence (P08183 whole entry): as above

In the case of `COc1cc(NC(=O)CSCC(=O)Nc2cc(-c3cc(C)c(C)cc3C)nn2-c2ccccc2)cc(OC)c1OC` [29-238, N-[1-phenyl-3-(2,4,5-trimethylphenyl)-1H-pyrazol-5-yl]-2-({[(3,4,5-trimethoxyphenyl)carbamoyl]methyl}sulfanyl)acetamide], the “Fold vs PTX + 29” value ([1]; 3 μM inhibitor) is reported as 3.4 fold, the “Fold vs PTX + 29” value ([1]; 5 μM inhibitor) is reported as “around 100 fold” and the “Fold vs PTX (fold increased sensitivity)” value ([1]; 5 μM inhibitor) is reported as “about a thousand-fold”. For the same molecule, the “Fold vs PTX + 29” value ([1]; 7 μM inhibitor) was “around 100 fold”, the “Fold vs PTX + 29” value ([1]; 10 μM inhibitor) was 300 fold and the “Resensitization of DU145TXR to paclitaxel / MDR reversal (in words)” value ([1]; listed as 238) was “increased paclitaxel toxicities to the greatest extents; also recorded: vastly outperformed compounds 278, 280 and 286; also recorded: strongest reversal of MDR”. The “Intracellular accumulation in absence vs presence of tariquidar (in words)” value [2] was “very large and significant increase”, the “Cellular accumulation: ratio of plus Tariquidar over no Tariquidar” value ([2]; human) was 1.9 and the “Calcein accumulation in DU145TXR (in words)” value (shortened to “Calcein accumulation”) [3] was “considerably increased calcein accumulation”.

With `Cc1cc(C)c(-c2cc(NC(=O)CSc3cccc(NC(=O)c4cncc(Br)c4)c3)n(-c3ccccc3)n2)cc1C` [29-551, 5-bromo-N-(3-((2-oxo-2-((1-phenyl-3-(2,4,5-trimethylphenyl)-1H-pyrazol-5-yl)amino)ethyl)thio)phenyl)nicotinamide] the “Fold vs PTX (fold increased sensitivity)” value ([1]; 3 μM inhibitor) was 38 fold, the “Resensitization of DU145TXR to paclitaxel / MDR reversal (in words)” value ([1]; listed as 551) was “re-sensitized; also recorded: more effective than 29 at all concentrations tested” and the “Cellular accumulation: ratio of plus Tariquidar over no Tariquidar” value ([2]; human) was 1.1. The “Transport substrate for P-gp” value ([2]; human) was “none of the Group 1 compounds functions as a transport substrate of P-gp” and the “Calcein accumulation” value [3] was “marginally higher calcein accumulation than parental compound 29”.

With `Cc1cc(C)c(-c2cc(NC(=O)CSCC(=O)Nc3ccc4ccccc4c3)n(-c3ccccc3)n2)cc1C` [29-231, 2-({[(naphthalen-2-yl)carbamoyl]methyl}sulfanyl)-N-[1-phenyl-3-(2,4,5-trimethylphenyl)-1H-pyrazol-5-yl]acetamide] the “Fold vs PTX + 29” value ([1]; 3 μM inhibitor, listed as 231) was 4.1 fold, the “Fold vs PTX (fold increased sensitivity)” value ([1]; 3 μM inhibitor) was 14 fold and the “Fold vs PTX + 29” value ([1]; 5 μM inhibitor) was 4.2 fold. For the same molecule, the “Fold vs PTX (fold increased sensitivity)” value ([1]; 5 μM inhibitor) was 46 fold, the “Fold vs PTX + 29” value ([1]; 7 μM inhibitor) was 8.4 fold and the “Fold vs PTX (fold increased sensitivity)” value ([1]; 7 μM inhibitor) was 303 fold. For the same molecule, the “Fold vs PTX + 29” value ([1]; 10 μM inhibitor) was 11 fold, the “Fold vs PTX (fold increased sensitivity)” value ([1]; 10 μM inhibitor) was 1060 fold and the “Resensitization of DU145TXR to paclitaxel / MDR reversal (in words)” value ([1]; listed as 231) was “re-sensitized; also recorded: more effective than 29 at all concentrations tested”. For the same molecule, the “Intracellular accumulation in absence vs presence of tariquidar (in words)” value [2] was “no significant cellular accumulation”, the “Cellular accumulation: ratio of plus Tariquidar over no Tariquidar” value ([2]; human) was 0.9 and the “Transport substrate for P-gp” value ([2]; human) was “none of the Group 1 compounds functions as a transport substrate of P-gp”. For the same molecule, the “Transport substrate for P-gp” value [2] was “no”.

In the case of `Cc1cc(C)c(-c2cc(NC(=O)CSCC(=O)NCc3ccc(F)cc3)n(-c3ccccc3)n2)cc1C` [29-286], the “Resensitization of DU145TXR to paclitaxel / MDR reversal (in words)” value ([1]; listed as 286) is reported as “little effect”, the “Cellular accumulation: ratio of plus Tariquidar over no Tariquidar” value [2] is reported as 1.3 and the “Intracellular accumulation in absence vs presence of tariquidar (in words)” value [2] is reported as “more modest, but statistically significant increases”. The “Calcein accumulation” value [3] was “comparable to 29”.

`Cc1cc(C)c(-c2cc(NC(=O)CSCC(=O)Nc3ccc4ncsc4c3)n(-c3ccccc3)n2)cc1C` [29-255, 2-({[(1,3-benzothiazol-6-yl)carbamoyl]methyl}sulfanyl)-N-[1-phenyl-3-(2,4,5 trimethylphenyl)-1H-pyrazol-5-yl]acetamide] was tested, and the “Fold vs PTX + 29” value ([1]; 3 μM inhibitor) was “comparable to 238 at 3 μM”, the “Fold vs PTX (fold increased sensitivity)” value ([1]; 7 μM inhibitor) was “about a thousand-fold” and the “Resensitization of DU145TXR to paclitaxel / MDR reversal (in words)” value ([1]; listed as 255) was “increased paclitaxel toxicities to the greatest extents; also recorded: vastly outperformed compounds 278, 280 and 286; also recorded: reversed MDR”. For the same molecule, the “Intracellular accumulation in absence vs presence of tariquidar (in words)” value [2] was “more modest, but statistically significant increases”, the “Cellular accumulation: ratio of plus Tariquidar over no Tariquidar” value ([2]; human) was 1.2 and the “Calcein accumulation” value [3] was “considerably increased calcein accumulation”.

`Cc1cc(C)c(-c2cc(NC(=O)CSc3nnc(C4CC4)[nH]3)n(-c3ccccc3)n2)cc1C` [compound 29, reference compound] was tested, and the “Fold vs PTX + 29” value ([1]; 3 μM inhibitor) was 1 fold, the “Fold vs PTX (fold increased sensitivity)” value ([1]; 3 μM inhibitor) was 3 fold and the “Fold vs PTX + 29” value ([1]; 5 μM inhibitor) was 1 fold. For the same molecule, the “Fold vs PTX (fold increased sensitivity)” value ([1]; 5 μM inhibitor) was 11 fold, the “Fold vs PTX + 29” value ([1]; 7 μM inhibitor) was 1 fold and the “Fold vs PTX (fold increased sensitivity)” value ([1]; 7 μM inhibitor) was 36 fold. For the same molecule, the “Fold vs PTX + 29” value ([1]; 10 μM inhibitor) was 1 fold, the “Fold vs PTX (fold increased sensitivity)” value ([1]; 10 μM inhibitor) was 101 fold and the “Cellular accumulation: ratio of plus Tariquidar over no Tariquidar” value [2] was 1.0. For the same molecule, the “Intracellular accumulation in absence vs presence of tariquidar (in words)” value [2] was “no significant difference”.

In the case of `Cc1cc(C)c(-c2cc(NC(=O)CSCC(=O)NC(c3ccccc3)c3ccccc3)n(-c3ccccc3)n2)cc1C` [29-280, N-(diphenylmethyl)-2-[({[1-phenyl-3-(2,4,5-trimethylphenyl)-1H-pyrazol-5-yl]carbamoyl)methyl}sulfanyl]acetamide], the “Cellular accumulation: ratio of plus Tariquidar over no Tariquidar” value ([2]; human) is reported as 1.2 and the “Calcein accumulation” value [3] is reported as “less calcein accumulation than the parental compound”.

“2-{[2-(9H-flouoren-2-yl)-2-oxoethyl]}-N-[1-phenyl-3-(2,4,5-trimethylphenyl0-1H-pyrazol-5-yl]acetamide [29-216]” was tested, and the “Fold vs PTX + 29” value ([1]; 5 μM inhibitor) was 1.3 fold, the “Fold vs PTX (fold increased sensitivity)” value ([1]; 5 μM inhibitor) was 14 fold and the “Fold vs PTX + 29” value ([1]; 7 μM inhibitor) was 1 fold. For the same molecule, the “Fold vs PTX (fold increased sensitivity)” value ([1]; 7 μM inhibitor) was 34 fold, the “Fold vs PTX + 29” value ([1]; 10 μM inhibitor) was 0.4 fold and the “Fold vs PTX (fold increased sensitivity)” value ([1]; 10 μM inhibitor) was 37 fold. The “Cellular accumulation: ratio of plus Tariquidar over no Tariquidar” value [2] was 1.1.

For `Cc1cc(C)c(-c2cc(NC(=O)CSCC(=O)N3c4ccccc4CCc4ccccc43)n(-c3ccccc3)n2)cc1C` [29-227, 2-[(2-{2-azatricyclo[9.4.0.0]pentadeca-1(11),3(8},4,6,12,14-hexaen-2-yl)-2-oxoethyl)sulfanyl]-N-[1-phenyl-3-(2,4,5-trimethylphenyl)-1H-pyrazol-5-yl]acetamide], the “Fold vs PTX + 29” value ([1]; 3 μM inhibitor, listed as 227) was 3.8 fold, the “Fold vs PTX (fold increased sensitivity)” value ([1]; 3 μM inhibitor) was 13 fold and the “Fold vs PTX + 29” value ([1]; 5 μM inhibitor) was 3.7 fold. The “Fold vs PTX (fold increased sensitivity)” value ([1]; 5 μM inhibitor) was 41 fold, the “Fold vs PTX + 29” value ([1]; 7 μM inhibitor) was 10 fold and the “Fold vs PTX (fold increased sensitivity)” value ([1]; 7 μM inhibitor) was 353 fold. For the same molecule, the “Fold vs PTX + 29” value ([1]; 10 μM inhibitor) was 5 fold, the “Fold vs PTX (fold increased sensitivity)” value ([1]; 10 μM inhibitor) was 530 fold and the “Resensitization of DU145TXR to paclitaxel / MDR reversal (in words)” value ([1]; listed as 227) was “re-sensitized; also recorded: more effective than 29 at all concentrations tested”. The “Cellular accumulation: ratio of plus Tariquidar over no Tariquidar” value [2] was 1.0.
